Results reported in patent US20240425517A1, “NOVEL COMPOUND FOR DEGRADATION OF TARGET PROTEIN OR POLYPEPTIDE BY POLYUBIQUITINATION” (PRAZER THERAPEUTICS INC., priority 2021, published 2024).

Biological target: T1, BRD4 proteins (Homo sapiens, UniProt O60885)
T1 construct: endogenous in cells; host or cells: MM.1S
Assay: Degradation of BRD4 protein in MM.1S cell lines (Western blot densitometry)
Type: cell-based
Details: MM.1S cells, 10 μM, 24 hours
In short: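 MM.1S cells in RPMI-1640 with 10% FBS were treated with each degrader at 10 μM for 24 h. RIPA lysates were analysed by SDS-PAGE/Western blot with β-actin as reference, and BRD4 band densitometry was scored as reduction <40% (+), 40-<70% (++) or ≥70% (+++).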

Compound | BRD4 degrading capacity (%)
COC(=O)c1ccc(C(=O)N2CCC3(CC2)CN(C(=O)C[C@@H]2N=C(c4ccc(Cl)cc4)c4c(sc(C)c4C)-n4c(C)nnc42)C3)cc1C#CCN [5-39′, methyl (S)-2-(3-aminoprop-1-yn-1-yl)-4-(2-(2-(4-(4-chlorophenyl)-2,3,9-trimethyl-6H-thieno[3,2-f][1,2,4]triazolo[4,3-a][1,4]diazepin-6-yl)acetyl)-2,7-diazaspiro[3.5]nonane-7-carbonyl)benzoate trifluoroacetic acid] | ++ (the degrading capacity was reduced by 40% to 70% (exclusive of 70))
COC(=O)c1ccc(N2CC3(CN(C(=O)C[C@@H]4N=C(c5ccc(Cl)cc5)c5c(sc(C)c5C)-n5c(C)nnc54)C3)C2)cc1C#CCN [5-40′, methyl (S)-2-(3-aminoprop-1-yn-1-yl)-4-(6-(2-(4-(4-chlorophenyl)-2,3,9-trimethyl-6H-thieno[3,2-f][1,2,4]triazolo[4,3-a][1,4]diazepin-6-yl)acetyl)-2,6-diazaspiro[3.3]heptan-2-yl)benzoate trifluoroacetic acid] | +++ (the degrading capacity was reduced by 70% or more)
COC(=O)c1ccc(C(=O)N2CC3(CN(C(=O)C[C@@H]4N=C(c5ccc(Cl)cc5)c5c(sc(C)c5C)-n5c(C)nnc54)C3)C2)cc1C#CCN [5-41′, methyl (S)-2-(3-aminoprop-1-yn-1-yl)-4-(6-(2-(4-(4-chlorophenyl)-2,3,9-trimethyl-6H-thieno[3,2-f][1,2,4]triazolo[4,3-a][1,4]diazepin-6-yl)acetyl)-2,6-diazaspiro[3.3]heptane-2-carbonyl)benzoate trifluoroacetic acid] | +++ (the degrading capacity was reduced by 70% or more)
COC(=O)c1ccc(N2CC3CN(C(=O)C[C@@H]4N=C(c5ccc(Cl)cc5)c5c(sc(C)c5C)-n5c(C)nnc54)CC3C2)cc1C#CCN (stereo partly drawn) [5-44′, methyl 2-(3-aminoprop-1-yn-1-yl)-4-(5-(2-((S)-4-(4-chlorophenyl)-2,3,9-trimethyl-6H-thieno[3,2-f][1,2,4]triazolo[4,3-a][1,4]diazepin-6-yl)acetyl)hexahydropyrrolo[3,4-c]pyrrol-2(1H)-yl)benzoate trifluoroacetic acid] | ++ (the degrading capacity was reduced by 40% to 70% (exclusive of 70))
Cc1sc2c(c1C)C(c1ccc(Cl)cc1)=N[C@@H](CC(=O)NCCCC(=O)Nc1ccc(C(=O)O)c(C#CCN)c1)c1nnc(C)n1-2.Cl [5-53′, (S)-2-(3-aminoprop-1-yn-1-yl)-4-(4-(2-(4-(4-chlorophenyl)-2,3,9-trimethyl-6H-thieno[3,2-f][1,2,4]triazolo[4,3-a][1,4]diazepin-6-yl)acetamido)butanamido)benzoic acid hydrochloride] | ++ (the degrading capacity was reduced by 40% to 70% (exclusive of 70))
Cc1sc2c(c1C)C(c1ccc(Cl)cc1)=N[C@@H](CC(=O)NCCCC(=O)Nc1ccc(C(N)=O)c(C#CCN)c1)c1nnc(C)n1-2.Cl [5-59′, (S)-2-(3-aminoprop-1-yn-1-yl)-4-(4-(2-(4-(4-chlorophenyl)-2,3,9-trimethyl-6H-thieno[3,2-f][1,2,4]triazolo[4,3-a][1,4]diazepin-6-yl)acetamido)butanamido)benzamide hydrochloride] | +++ (the degrading capacity was reduced by 70% or more)
Cc1sc2c(c1C)C(c1ccc(Cl)cc1)=N[C@@H](CC(=O)NCCCC(=O)Nc1ccc(C(=O)N(C)C)c(C#CCN)c1)c1nnc(C)n1-2.Cl [5-61′, (S)-2-(3-aminoprop-1-yn-1-yl)-4-(4-(2-(4-(4-chlorophenyl)-2,3,9-trimethyl-6H-thieno[3,2-f][1,2,4]triazolo[4,3-a][1,4]diazepin-6-yl)acetamido)butanamido)-N,N-dimethylbenzamide hydrochloride] | ++ (the degrading capacity was reduced by 40% to 70% (exclusive of 70))
COc1ccc(NC(=O)CCCNC(=O)C[C@@H]2N=C(c3ccc(Cl)cc3)c3c(sc(C)c3C)-n3c(C)nnc32)cc1C#CCN [5-63′, (S)—N-(3-(3-aminoprop-1-yn-1-yl)-4-methoxyphenyl)-4-(2-(4-(4-chlorophenyl)-2,3,9-trimethyl-6H-thieno[3,2-f][1,2,4]triazolo[4,3-a][1,4]diazepin-6-yl)acetamido)butanamide trifluoroacetic acid] | ++ (the degrading capacity was reduced by 40% to 70% (exclusive of 70))
Cc1ccc(NC(=O)CCCNC(=O)C[C@@H]2N=C(c3ccc(Cl)cc3)c3c(sc(C)c3C)-n3c(C)nnc32)cc1C#CCN.Cl [5-65′, (S)—N-(3-(3-aminoprop-1-yn-1-yl)-4-methylphenyl)-4-(2-(4-(4-chlorophenyl)-2,3,9-trimethyl-6H-thieno[3,2-f][1,2,4]triazolo[4,3-a][1,4]diazepin-6-yl)acetamido)butanamide hydrochloride] | + (the degrading capacity of each BRD4 degrader was reduced by less than 40%)
Cc1sc2c(c1C)C(c1ccc(Cl)cc1)=N[C@@H](CC(=O)NCCCC(=O)Nc1ccc(C(F)(F)F)c(C#CCN)c1)c1nnc(C)n1-2.Cl [5-75′, (S)—N-(3-(3-aminoprop-1-yn-1-yl)-4-(trifluoromethyl)phenyl)-4-(2-(4-(4-chlorophenyl)-2,3,9-trimethyl-6H-thieno[3,2-f][1,2,4]triazolo[4,3-a][1,4]diazepin-6-yl)acetamido)butanamide hydrochloride] | +++ (the degrading capacity was reduced by 70% or more)
Cc1sc2c(c1C)C(c1ccc(Cl)cc1)=N[C@@H](CC(=O)NCCCC(=O)Nc1ccc(F)c(C#CCN)c1)c1nnc(C)n1-2.Cl [5-77′, (S)—N-(3-(3-aminoprop-1-yn-1-yl)-4-fluorophenyl)-4-(2-(4-(4-chlorophenyl)-2,3,9-trimethyl-6H-thieno[3,2-f][1,2,4]triazolo[4,3-a][1,4]diazepin-6-yl)acetamido)butanamide hydrochloride] | + (the degrading capacity of each BRD4 degrader was reduced by less than 40%)
COC(=O)c1c(C)cc(NC(=O)CCCNC(=O)C[C@@H]2N=C(c3ccc(Cl)cc3)c3c(sc(C)c3C)-n3c(C)nnc32)cc1C#CCN.Cl [5-78′, methyl (S)-2-(3-aminoprop-1-yn-1-yl)-4-(4-(2-(4-(4-chlorophenyl)-2,3,9-trimethyl-6H-thieno[3,2-f][1,2,4]triazolo[4,3-a][1,4]diazepin-6-yl)acetamido)butanamido)-6-methylbenzoate hydrochloride] | + (the degrading capacity of each BRD4 degrader was reduced by less than 40%)
Cc1sc2c(c1C)C(c1ccc(Cl)cc1)=N[C@@H](CC(=O)NCCCC(=O)Nc1ccc(-c3cnc(C(F)(F)F)nc3)c(C#CCN)c1)c1nnc(C)n1-2.Cl [5-81′, (S)—N-(3-(3-aminoprop-1-yn-1-yl)-4-(2-(trifluoromethyl)pyrimidin-5-yl)phenyl)-4-(2-(4-(4-chlorophenyl)-2,3,9-trimethyl-6H-thieno[3,2-f][1,2,4]triazolo[4,3-a][1,4]diazepin-6-yl)acetamido)butanamide hydrochloride] | +++ (the degrading capacity was reduced by 70% or more)
COC(=O)c1ccc(NCC2CCN(C(=O)C[C@@H]3N=C(c4ccc(Cl)cc4)c4c(sc(C)c4C)-n4c(C)nnc43)CC2)cc1C#CCN [5-85′, methyl (S)-2-(3-aminoprop-1-yn-1-yl)-4-(((1-(2-(4-(4-chlorophenyl)-2,3,9-trimethyl-6H-thieno[3,2-f][1,2,4]triazolo[4,3-a][1,4]diazepin-6-yl)acetyl)piperidin-4-yl)methyl)amino)benzoate trifluoroacetic acid] | +++ (the degrading capacity was reduced by 70% or more)
COC(=O)c1ccc(NC2CCN(C(=O)C[C@@H]3N=C(c4ccc(Cl)cc4)c4c(sc(C)c4C)-n4c(C)nnc43)CC2)cc1C#CCN [5-86′, methyl (S)-2-(3-aminoprop-1-yn-1-yl)-4-((1-(2-(4-(4-chlorophenyl)-2,3,9-trimethyl-6H-thieno[3,2-f][1,2,4]triazolo[4,3-a][1,4]diazepin-6-yl)acetyl)piperidin-4-yl)amino)benzoate] | +++ (the degrading capacity was reduced by 70% or more)
COC(=O)c1cc(C#CCN)cc(NC(=O)CCCNC(=O)C[C@@H]2N=C(c3ccc(Cl)cc3)c3c(sc(C)c3C)-n3c(C)nnc32)c1.Cl [5-89′, methyl (S)-3-(3-aminoprop-1-yn-1-yl)-5-(4-(2-(4-(4-chlorophenyl)-2,3,9-trimethyl-6H-thieno[3,2-f][1,2,4]triazolo[4,3-a][1,4]diazepin-6-yl)acetamido)butanamido)benzoate hydrochloride] | + (the degrading capacity of each BRD4 degrader was reduced by less than 40%)
COC(=O)c1ccc(C#CCN)cc1NC(=O)CCCNC(=O)C[C@@H]1N=C(c2ccc(Cl)cc2)c2c(sc(C)c2C)-n2c(C)nnc21.Cl [5-90′, methyl (S)-4-(3-aminoprop-1-yn-1-yl)-2-(4-(2-(4-(4-chlorophenyl)-2,3,9-trimethyl-6H-thieno[3,2-f][1,2,4]triazolo[4,3-a][1,4]diazepin-6-yl)acetamido)butanamido)benzoate hydrochloride] | +++ (the degrading capacity was reduced by 70% or more)
COC(=O)c1nc(NC(=O)CCCNC(=O)C[C@@H]2N=C(c3ccc(Cl)cc3)c3c(sc(C)c3C)-n3c(C)nnc32)ccc1C#CCN.Cl [5-96′, methyl (S)-3-(3-aminoprop-1-yn-1-yl)-6-(4-(2-(4-(4-chlorophenyl)-2,3,9-trimethyl-6H-thieno[3,2-f][1,2,4]triazolo[4,3-a][1,4]diazepin-6-yl)acetamido)butanamido)picolinate hydrochloride] | +++ (the degrading capacity was reduced by 70% or more)
Cc1sc2c(c1C)C(c1ccc(Cl)cc1)=N[C@@H](CC(=O)NCCCCCC(=O)Nc1cccc(C#CCN)c1)c1nnc(C)n1-2.Cl [5-104′, (S)—N-(3-(3-aminoprop-1-yn-1-yl)phenyl)-6-(2-(4-(4-chlorophenyl)-2,3,9-trimethyl-6H-thieno[3,2-f][1,2,4]triazolo[4,3-a][1,4]diazepin-6-yl)acetamido)hexanamide hydrochloride] | ++ (the degrading capacity was reduced by 40% to 70% (exclusive of 70))
